{"source": "patent US20120136033A1", "about": "“Small Molecule Antagonists of Phosphatidylinositol-3,4,5-Triphosphate (PIP3) and Uses Thereof” (President and Fellows of Harvard College, priority 2009, published 2012)", "tested_on": "AMP-activated protein kinase (AMPK)", "experiment": "phosphorylation of AMPK and ACC (metabolic stress)", "assay_type": "cell-based", "source_text": "Changes in cell metabolism have emerged in recent years as an important component of PI3K/PIP3/Akt signaling, contributing to the regulation of cell viability and transformation by the PI3K/Akt pathway. Datta S R et al. (1999) Genes Dev 13:2905-27; Elstrom R L et al. (2004) Cancer Res 64:3892-9. Therefore, the possibility that PIT-1 may cause dysregulation of energy homeostasis and induction of the metabolic stress in cancer cells, which may contribute to the PIT-induced cell death, was investigated. […] Hardie D G (2007) Nat Rev Mol Cell Biol 8:774-85. […] Mathew R et al. (2007) Nat Rev Cancer 7:961-7. […] Takeuchi H et al. (2005) Cancer Res 65:3336-46.", "data": [{"smiles": "O=C(NC(=S)Nc1cc([N+](=O)[O-])cc(Cl)c1O)c1ccccc1", "note": "[PIT-1]", "values": [{"measurement": "phosphorylation of AMPK", "value": "significant increase in the phosphorylation"}, {"measurement": "phosphorylation of acetyl-CoA carboxylase (ACC)", "value": "Increased phosphorylation"}]}]}
